Experimental data as given in article PMC11574045, “A cofactor-induced repressive type of transcription factor condensation can be induced by synthetic peptides to suppress tumorigenesis” (The EMBO Journal, 2024).
Where “and” joins values, the source holds several entries; their conditions need not be identical. Equal entries are not always repeated. Ends that are not written are not given here.

Key:
TEAD4 [1] = biological target: T1, TEAD4 (Homo sapiens, UniProt Q15561); assay: In vitro LLPS (droplet formation) assay; assay type: biochemical
T1 construct: His; made in house; host or cells: Escherichia coli BL21(DE3)
Protocol: LLPS was induced at room temperature by diluting proteins and NaCl to specified concentrations (20, 150, 500 mM). After subsequent mixing, 10 μl of the reaction solution were gently transferred onto a 20 mm glass-bottomed dish (NEST, 801001) for differential interference contrast (DIC) imaging performed using a Zeiss LSM 880 confocal microscope equipped with a 20× water immersion objective lens. Unless otherwise indicated (e.g., in the figure legend), the final concentration of purified protein used for in vitro LLPS assays was 40 μM.

HGC-27 cells = assay: RNA sequencing; assay type: cell-based, human; details: GLUP-treated HGC-27 cells
Protocol: For RNA sequencing, HGC-27 cells in 6-well plates were treated with GLUP peptide at 10 μg/ml for 48 h. The stocking buffer (20 mM HEPES pH 7.5, and 100 mM NaCl) was used as a negative control. Total RNA was extracted from at least two biological replicates. Extracted RNA was monitored for its quality using a 2100 Expert Bioanalyzer (Agilent) before being sent for library preparation and RNA sequencing (Majorbio). The RNA sequencing data were analyzed on a free online Majorbio I-Sanger Cloud Platform (www.majorbio.com).

TEAD4 [2] = biological target: T1, TEAD4; assay: In vitro DSS-cross-linking assay of TEAD4 oligomerization; assay type: biochemical; details: 5 µM protein, 30 min 30 °C, DSS 3 mM, SDS-PAGE
Protocol: The deployed cross-linking reaction system contained 20 mM HEPES pH 7.5, 250 mM NaCl and 5 µM tested proteins with a total volume of 20 µl. This system was allowed to incubate for 30 min at 30 °C, and then combined with disuccinimidyl suberate (DSS) at a final concentration of 3 mM, and the mixtures were further incubated at 4 °C for 20 min. The cross-linking reaction was stopped by adding 1 M Tris HCl (pH 8.5) to the incubated mixture at 4 °C, and allowing the mixture to sit for 10 min, and then boiling it in 1×SDS loading buffer to provide samples for SDS-PAGE analysis.

TEAD4 [3] = biological target: T1, TEAD4; assay: Dynamic light scattering (DLS) of TEAD4 oligomerization; assay type: biochemical; details: after 10–20 min incubation with glup (10 μg/ml); TEAD4:glup molar ratio 10:1, 4 °C; DLS at 25 °C
Protocol: In the case of glup, the mixtures were incubated at 4 °C for various periods of time as indicated in related figures. And then the mixtures were subjected to dynamic light scattering analysis at 25 °C. Scattered light was measured at a 90° angle at a wavelength of 658 nm.

[4] = test system: GFP-TEAD4 condensates in HEK293FT cells; assay: FRAP of TEAD4 condensates in live cells; assay type: cell-based; details: GLUP-treated HEK293FT cells
Protocol: For FRAP analysis, cells were seeded at a confluency of ~30% on a 35-mm glass-bottomed dish (Cellvis D35C4-20-1-N). Live cell imaging was carried out using a Leica SP8 confocal microscope (Leica, Germany) with a 63× oil immersion objective lens. A defined region with a diameter of ~1 μm was photobleached by the equipped laser at ~90% power intensity. Fluorescence intensities of the region were recorded by carrying out time-lapse live imaging with a 1.29 s interval and further quantified using Fiji ImageJ software.

HGC-27 xenograft tumors = assay: HGC-27 xenograft tumor formation assay; assay type: in vivo, mouse; set-up: Tumor volume, GLUP+ / Tumor volume, GLUP++: unit not given here
Description: Mice used in this study were from SLAC Laboratory Animal (Shanghai, China), and included 4-week-old BALB/c nude mice (female) and 8-week-old C57BL/6J mice (male and female). Tumors were allowed to grow to an average size of ~60 mm^3 and then the mice were randomly allocated to groups of 5–6 animals. No blinding was used in the treatment schedules for these experiments since the different treatments were identified by different marks on the tail. Based on our previous experience, 5–6 animals per group would provide statistically significant data while keeping the number of animals used to a minimum. Tumor size was determined by taking caliper measurements of tumor length, width and depth; tumor volume was calculated as 0.5236 × length × width × depth (mm^3).
Healthy female BALB/c nude mice were maintained in pathogen-free conditions to which they were allowed to acclimate for 1 week before being used. For the tumor formation assay, tumor cells (1 × 10^6) were injected into the respective flanks of the mice. Mice in which tumors were detected with an average size of ~60 mm^3 were biweekly administered 1 or 5 mg/kg GLUP via subcutaneous injection. These mice were sacrificed after 4 weeks, and tumor volumes were then measured.

T1 sequence (Q15561 whole entry): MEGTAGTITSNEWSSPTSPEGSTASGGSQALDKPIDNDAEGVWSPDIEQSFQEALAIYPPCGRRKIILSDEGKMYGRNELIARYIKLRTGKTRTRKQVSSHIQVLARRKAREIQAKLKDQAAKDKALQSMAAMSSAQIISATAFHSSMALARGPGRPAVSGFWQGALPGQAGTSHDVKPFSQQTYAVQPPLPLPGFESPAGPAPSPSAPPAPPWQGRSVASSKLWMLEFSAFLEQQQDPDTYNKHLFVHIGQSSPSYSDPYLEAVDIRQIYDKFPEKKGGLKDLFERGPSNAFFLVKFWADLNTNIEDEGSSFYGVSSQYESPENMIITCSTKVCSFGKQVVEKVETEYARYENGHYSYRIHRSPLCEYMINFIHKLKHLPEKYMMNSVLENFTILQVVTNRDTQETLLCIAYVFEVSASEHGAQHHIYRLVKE

RRVCVHFHFSLSLR-NH2 (C-terminus assumed) [glup]
Turbidity of TEAD4 solution after GLUP (TEAD4 [1]; PEG solution, vials before and after GLUP): high turbidity in a PEG solution
TEAD4 droplet formation (TEAD4 [1]; mCherry-TEAD4 with FAM-GLUP 20, 40, 80 µM): strongly promoted TEAD4 droplet formation
GSEA of TEAD signature genes (HGC-27 cells): negative enrichment of TEAD signature genes
TEAD4 oligomerization in DSS cross-linking (TEAD4 [2]): induced TEAD4 oligomerization in a concentration-dependent manner
TEAD4 oligomerization in DSS cross-linking (TEAD4 [2]; listed as GLUP): strongly induced TEAD4 oligomerization
TEAD4 oligomerization by DLS (TEAD4 [3]): formed dimers or oligomers of high molecular weight
mobile fraction (FRAP) [4]: about 62%
Growth of xenografted tumors (HGC-27 xenograft tumors; 1 or 5 mg/kg GLUP): inhibited growth of xenografted tumors in a dose-dependent manner
Tumor volume, GLUP+ (HGC-27 xenograft tumors; nude mice, 1 mg/kg GLUP s.c. biweekly, individual mice, n = 5 (source data Fig 7E), 1 mg/kg): 0.858 and 0.629 and 0.519 and 0.753 and 0.732
Tumor volume, GLUP++ (HGC-27 xenograft tumors; nude mice, 5 mg/kg GLUP s.c. biweekly, individual mice, n = 5 (source data Fig 7E), 5 mg/kg): 0.345 and 0.321 and 0.256 and 0.423 and 0.503
